The values that follow come from US9499614B2, “Methods for modulating protein glycosylation profiles of recombinant protein therapeutics using monosaccharides and oligosaccharides” (AbbVie, Inc., priority 2013, dated 2016).

The test system of assay [1] is Cell Line 1. Briefly: 3 L laboratory-scale bioreactor culture of Cell Line 1, cell culture performance. In kind it is cell-based, Chinese Hamster. The protocol: Two recombinant Chinese Hamster Ovary (CHO) cell lines expressing two different humanized monoclonal antibodies (Antibody 1, Antibody 2) were evaluated in two different culture vessels (shaker flasks and laboratory scale bioreactors). Both cell lines were of CHO DUX-B11 origin based on a dhfr (dihydrofolate reductase) expression system. Both cell lines were cultured in the same chemically defined basal media (CDBM), with Cell Line 1 also utilizing a chemically-defined feed media (CDFM). Each of the respective media were supplemented with selected monosaccharides and oligosaccharides to evaluate their potential impact on the resulting N-glycan oligosaccharide profile. In preparing the cultures, the cell lines were serially expanded through separate seed train inoculums to generate enough cells for inoculation.
Viable cell density (VCD) and cell viability values were measured through trypan blue exclusion via Cedex automated cell counters (Roche Applied Science, Indianapolis, Ind.), glucose and lactate values were measured with a ABL-805 (Radiometer Medical, Denmark) blood gas analyzer. Offline pH, dissolved oxygen (DO), and pCO2 measurements were performed with a ABL-805 (Radiometer Medical, Denmark) blood gas analyzer. Osmolality was measured on a Multi-Osmette 2430 osmometer (Precision Systems, Natick, Mass.).
Antibody titers were measured from crude cell culture harvests on a Poros A™ (Life Technologies, Carlsbad, Calif.) affinity column using an Agilent (Santa Clara, Calif.) 1200 Series HPLC, or equivalent, operating with a low pH, step elution gradient with detection at 280 nm. Absolute concentrations were assigned with respect to reference standard calibration curves.
(§1) 3 L scale-down model bioreactors were utilized to verify the impact of select sugars on the resulting protein glycosylation profiles. The concentration of the sucrose and tagatose was chosen to minimize any potential adverse impact on cell growth and productivity, but still facilitate a measurable modulation of the glycosylation profile. Cell culture process performance indicators were monitored and measured throughout the respective cultures. Viable cell density, cell viability, lactate, pCO2, osmolality, harvest titer, and harvest N-glycan oligosaccharide data were measured and reported.
Two recombinant Chinese Hamster Ovary (CHO) cell lines expressing two different recombinant glycoproteins were evaluated in two different cultures vessels (shaker flasks and 3 L laboratory scale bioreactors). Cell Line 1 expressed Antibody 1, Cell Line 2 expressed Dual Variable Domain Immunoglobulin 1 (DVD 1) and Cell Line 3 expressed Antibody 2. Antibodies 1 and 2 are IgG1 proteins, and DVD 1 is an immunoglobulin with two variable domains as documented previously (Wu C. et al., (2007) Nat. Biotechnol 25(11):1290-1297). All cell lines were of CHO DUX-B11 origin based on a dhfr (dihydrofolate reductase) expression system. All cell lines were cultured in the same chemically defined basal media. Cell lines 1 and 2 were fed with the same chemically-defined feed media, but Cell Line 1 was fed media that was formulated at a 50% higher concentration. Each of the respective media were supplemented with either sucrose or tagatose to evaluate their potential impact on the resulting N-glycan oligosaccharide profile. All sugars were purchased from Sigma-Aldrich (St. Louis, Mo.). In preparation of the cultures, the cell lines were serially expanded through separate seed train inoculums to generate enough cells for inoculation.
Viable cell density (VCD) and cell viability values were measured through trypan blue exclusion via Cedex automated cell counters (Roche Applied Science, Indianapolis, Ind.), glucose and lactate values were measured with a ABL-805 (Radiometer Medical, Denmark) blood gas analyzer. Offline pH, dissolved oxygen (DO), and pCO2 measurements were performed with an ABL-805 (Radiometer Medical, Denmark) blood gas analyzer. […]

For assay [2], the system named is Cell Line 1. Briefly: N-glycan oligosaccharide profiling, Cell Line 1 in 3 L laboratory-scale bioreactors. It counts as cell-based, Chinese Hamster. The conditions noted are these: 50 mM supplement. The protocol: Purified antibodies subjected to additional analytical characterization were purified using MabSelect™ Protein A (GE Healthcare, Piscataway, N.J.) using a low pH, step elution gradient, followed by buffer exchange using Corning Lifesciences (Tewksbury, Mass.) Spin Concentrator X UF columns according to the manufacturers' recommended procedures.
Approximately 200 μg of Protein A purified samples from Cell Lines 1 and 2 were treated with N-glycanase at 37° C. overnight to remove the N-glycans from the protein. The protein was precipitated and the supernatant was taken for subsequent chemical derivatization of the reducing end of the released glycans with 2-aminobenzamide (2-AB) dye. Following the derivatization step, the excess label was removed using clean up cartridges and the samples were analyzed using normal phase HPLC with fluorescent detection. Mobile phase A was 100% acetonitrile and mobile phase B was 50 mM ammonium formate pH 4.4. The glycans were eluted from a polyamide column (Prozyme, Hayward, Calif.) using a shallow gradient. The labeled glycans were detected using a fluorescence detector with an excitation wavelength of 330 nm and an emission wavelength of 420 nm.
as §1
3 L scale laboratory bioreactors were utilized to verify the impact of sucrose, tagatose, or fructose on protein glycosylation profiles. Concentrations of the sugars were chosen to minimize any potential adverse impacts on cell growth and productivity, but still facilitate a measurable impact on the glycoform profile. Cell culture process performance indicators were monitored and measured throughout the study. Viable cell density, cell viability, lactate, pCO2, osmolality, harvest titer, and harvest N-glycan oligosaccharide data was measured and reported.

Regarding `O=C(CO)[C@@H](O)[C@H](O)[C@H](O)CO` [fructose, reference compound], in the assay with Cell Line 1 [1] (50 mM supplement vs control), the Osmolality entry was “only slightly higher”, the cell viability result is “no impact” and the viable cell density entry is “no impact”. Also, the “final harvest titer ratio” value in the assay on Cell Line 1 [1] (50 mM supplement, relative to unsupplemented control) was 0.81. In addition, the “changes in protein glycosylation compared to the control” value with Cell Line 1 [2] is on record as “did not facilitate any significant changes in protein glycosylation”.
